{"source": "paper PMC5218480", "about": "(PLoS ONE, 2017)", "system": "MV-4-11 cells", "assay": "Gene expression microarray analysis (Affymetrix PrimeView) and GSEA", "assay_type": "cell-based, human", "set-up": "RFU PODN (11730768_x_at) / Fold change /veh PODN (11730768_x_at) / RFU LINC00158 (11744669_a_at) / Fold change /veh LINC00158 (11744669_a_at) / RFU DUSP10 (11751237_a_at) / Fold change /veh DUSP10 (11751237_a_at) / RFU ID3 (11757404_x_at) / Fold change /veh ID3 (11757404_x_at) / RFU PLEKHG5 (11737974_s_at) / Fold change /veh PLEKHG5 (11737974_s_at) / RFU LRRC4B (11730491_at) / Fold change /veh LRRC4B (11730491_at) / RFU GIMAP4 (11747438_a_at) / Fold change /veh GIMAP4 (11747438_a_at) / RFU KRT8 (11758183_x_at) / Fold change /veh KRT8 (11758183_x_at) / RFU CNN1 (11734310_a_at) / Fold change /veh CNN1 (11734310_a_at) / RFU VPS37D (11726825_at) / Fold change /veh VPS37D (11726825_at) / RFU C10orf10 (11716522_x_at) / Fold change /veh C10orf10 (11716522_x_at) / RFU KIR2DL2 /// KIR2DL4 /// KIR2DL5A /// KIR2DL5B /// KIR2DS1 /// KIR2DS2 /// KIR2DS3 /// KIR2DS4 /// KIR3DL3 /// KIR3DL3 /// KIR3DS1 (11738374_at) / Fold change /veh KIR2DL2 /// KIR2DL4 /// KIR2DL5A /// KIR2DL5B /// KIR2DS1 /// KIR2DS2 /// KIR2DS3 /// KIR2DS4 /// KIR3DL3 /// KIR3DL3 /// KIR3DS1 (11738374_at) / RFU C1QL1 (11718748_at) / Fold change /veh C1QL1 (11718748_at) / RFU TMPRSS4 (11747572_a_at) / Fold change /veh TMPRSS4 (11747572_a_at) / RFU HAMP (11756126_x_at) / Fold change /veh HAMP (11756126_x_at) / RFU RNFT2 (11725882_a_at) / Fold change /veh RNFT2 (11725882_a_at) / RFU NR4A2 (11747474_a_at) / Fold change /veh NR4A2 (11747474_a_at) / RFU ABCC12 (11746883_a_at) / Fold change /veh ABCC12 (11746883_a_at) / RFU TMEM136 (11760407_x_at) / Fold change /veh TMEM136 (11760407_x_at) / RFU CLDN22 /// WWC2 (11732394_at) / Fold change /veh CLDN22 /// WWC2 (11732394_at) / RFU HLA-DPB1 (11760878_x_at) / Fold change /veh HLA-DPB1 (11760878_x_at) / RFU SPINT1 (11716480_a_at) / Fold change /veh SPINT1 (11716480_a_at) / RFU GAP43 (11754022_s_at) / Fold change /veh GAP43 (11754022_s_at) / RFU A4GNT (11735810_at) / Fold change /veh A4GNT (11735810_at) / RFU PRB3 (11715151_x_at) / Fold change /veh PRB3 (11715151_x_at) / RFU TUBB4B (11761932_at) / Fold change /veh TUBB4B (11761932_at) / RFU CAPN14 (11732068_a_at) / Fold change /veh CAPN14 (11732068_a_at) / RFU TMCC2 (11721928_a_at) / Fold change /veh TMCC2 (11721928_a_at) / RFU IRGQ (11745062_a_at) / Fold change /veh IRGQ (11745062_a_at) / RFU FAM174B (11720279_a_at) / Fold change /veh FAM174B (11720279_a_at) / RFU TMPRSS4 (11748680_a_at) / Fold change /veh TMPRSS4 (11748680_a_at) / RFU FAM212B (11763350_a_at) / Fold change /veh FAM212B (11763350_a_at) / RFU PLEKHG5 (11743358_a_at) / Fold change /veh PLEKHG5 (11743358_a_at) / RFU ZSCAN30 (11745921_a_at) / Fold change /veh ZSCAN30 (11745921_a_at) / RFU CMKLR1 (11741424_a_at) / Fold change /veh CMKLR1 (11741424_a_at) / RFU LOC101060620 /// MAPK8IP1 (11723275_at) / Fold change /veh LOC101060620 /// MAPK8IP1 (11723275_at) / RFU SPTSSB (11747773_x_at) / Fold change /veh SPTSSB (11747773_x_at) / RFU PRSS12 (11739890_at) / Fold change /veh PRSS12 (11739890_at) / RFU BIN1 (11741810_x_at) / Fold change /veh BIN1 (11741810_x_at) / RFU WNT11 (11732464_a_at) / Fold change /veh WNT11 (11732464_a_at) / RFU C10orf10 (11716521_a_at) / Fold change /veh C10orf10 (11716521_a_at) / RFU C5orf56 (11738089_at) / Fold change /veh C5orf56 (11738089_at) / RFU CYB561 (11721691_x_at) / Fold change /veh CYB561 (11721691_x_at) / RFU ANKRD19P (11752326_a_at) / Fold change /veh ANKRD19P (11752326_a_at) / RFU OR2T12 /// OR2T33 /// OR2T8 (11738714_s_at) / Fold change /veh OR2T12 /// OR2T33 /// OR2T8 (11738714_s_at) / RFU VCAN (11748164_a_at) / Fold change /veh VCAN (11748164_a_at) / RFU JSRP1 (11732532_at) / Fold change /veh JSRP1 (11732532_at) / RFU KRTAP10-11 (11738290_x_at) / Fold change /veh KRTAP10-11 (11738290_x_at) / RFU MYO3A (11730013_a_at) / Fold change /veh MYO3A (11730013_a_at) / RFU EBF3 (11725865_a_at) / Fold change /veh EBF3 (11725865_a_at) / RFU CAMK2N1 (11719241_x_at) / Fold change /veh CAMK2N1 (11719241_x_at) / RFU C5orf56 (11738088_a_at) / Fold change /veh C5orf56 (11738088_a_at) / RFU OLFML3 (11715873_a_at) / Fold change /veh OLFML3 (11715873_a_at) / RFU LOC100653217 /// NTM (11731650_a_at) / Fold change /veh LOC100653217 /// NTM (11731650_a_at) / RFU MAPK11 (11762145_a_at) / Fold change /veh MAPK11 (11762145_a_at) / RFU FIZ1 (11724087_x_at) / Fold change /veh FIZ1 (11724087_x_at) / RFU OASL (11726364_x_at) / Fold change /veh OASL (11726364_x_at) / RFU SOX15 (11748057_x_at) / Fold change /veh SOX15 (11748057_x_at) / RFU CD79A (11719716_a_at) / Fold change /veh CD79A (11719716_a_at) / RFU HIST1H1D (11736915_at) / Fold change /veh HIST1H1D (11736915_at) / RFU CASKIN2 (11723855_a_at) / Fold change /veh CASKIN2 (11723855_a_at) / RFU LOC730098 (11760151_x_at) / Fold change /veh LOC730098 (11760151_x_at) / RFU OR4N2 (11742367_at) / Fold change /veh OR4N2 (11742367_at) / RFU PRRT2 (11749266_a_at) / Fold change /veh PRRT2 (11749266_a_at) / RFU SNX32 (11753110_a_at) / Fold change /veh SNX32 (11753110_a_at) / RFU CDHR5 (11726645_a_at) / Fold change /veh CDHR5 (11726645_a_at) / RFU RCAN1 (11760418_a_at) / Fold change /veh RCAN1 (11760418_a_at) / RFU FAM167A (11723789_a_at) / Fold change /veh FAM167A (11723789_a_at) / RFU FAM26E (11764081_at) / Fold change /veh FAM26E (11764081_at) / RFU ISYNA1 (11749810_s_at) / Fold change /veh ISYNA1 (11749810_s_at) / RFU ACY1 (11761880_at) / Fold change /veh ACY1 (11761880_at) / RFU 11764098_at / Fold change /veh 11764098_at / RFU SAMD14 (11745864_x_at) / Fold change /veh SAMD14 (11745864_x_at) / RFU NPB (11741838_a_at) / Fold change /veh NPB (11741838_a_at) / RFU TMPRSS6 (11731388_a_at) / Fold change /veh TMPRSS6 (11731388_a_at) / RFU KRTAP10-2 (11738614_at) / Fold change /veh KRTAP10-2 (11738614_at) / RFU ARHGAP8 /// PRR5-ARHGAP8 (11727945_x_at) / Fold change /veh ARHGAP8 /// PRR5-ARHGAP8 (11727945_x_at) / RFU KRTAP5-7 /// NADSYN1 (11734609_at) / Fold change /veh KRTAP5-7 /// NADSYN1 (11734609_at) / RFU RASL12 (11751679_a_at) / Fold change /veh RASL12 (11751679_a_at) / RFU CDKN2B (11736163_a_at) / Fold change /veh CDKN2B (11736163_a_at) / RFU PRF1 (11729649_at) / Fold change /veh PRF1 (11729649_at) / RFU, ZNF638 /// ZNF638-IT1 / Fold change vs veh, ZNF638 /// ZNF638-IT1 / RFU, PANK3 / Fold change vs veh, PANK3 / RFU, SH3YL1 / Fold change vs veh, SH3YL1 / RFU, ZEB2 / Fold change vs veh, ZEB2 / RFU, NRIP1 / Fold change vs veh, NRIP1 / RFU, PTTG1IP / Fold change vs veh, PTTG1IP / RFU, CAPN2 / Fold change vs veh, CAPN2 / RFU, MED14 / Fold change vs veh, MED14 / RFU, SNORA58 / Fold change vs veh, SNORA58 / RFU, C1orf63 / Fold change vs veh, C1orf63 / RFU, LRRFIP1 / Fold change vs veh, LRRFIP1 / RFU, NDUFAF7 / Fold change vs veh, NDUFAF7 / RFU, SLC12A2 / Fold change vs veh, SLC12A2 / RFU, IBTK / Fold change vs veh, IBTK / RFU, ESF1 / Fold change vs veh, ESF1 / Fold change vs veh, TMEM50B / RFU, TAOK1 / Fold change vs veh, TAOK1 / RFU, ACBD3 / Fold change vs veh, ACBD3 / RFU, TMA16 / Fold change vs veh, TMA16 / RFU, RWDD3 / Fold change vs veh, RWDD3 / RFU, BCAT1 / Fold change vs veh, BCAT1 / RFU, EDEM3 / Fold change vs veh, EDEM3 / RFU, TMEM33 / Fold change vs veh, TMEM33 / RFU, WDR75 / Fold change vs veh, WDR75 / RFU, AHCTF1 / Fold change vs veh, AHCTF1 / RFU, TFRC / Fold change vs veh, TFRC / RFU, ZDHHC17 / Fold change vs veh, ZDHHC17 / RFU, NOM1 / Fold change vs veh, NOM1 / RFU, ARL8B / Fold change vs veh, ARL8B / RFU, ZBTB11 / Fold change vs veh, ZBTB11 / RFU, TAMM41 / Fold change vs veh, TAMM41 / RFU, KIAA1704 /// LOC100996395 / Fold change vs veh, KIAA1704 /// LOC100996395 / RFU, ING1 / Fold change vs veh, ING1 / RFU, TRMT61B / Fold change vs veh, TRMT61B / RFU, FUBP3 / Fold change vs veh, FUBP3 / RFU, TP53 / Fold change vs veh, TP53 / RFU, TNKS2 / Fold change vs veh, TNKS2 / RFU, ZFP14 / Fold change vs veh, ZFP14 / RFU, ACTR2 / Fold change vs veh, ACTR2 / RFU, PPP3R1 / Fold change vs veh, PPP3R1 / RFU, PIK3R1 / Fold change vs veh, PIK3R1 / RFU, HNRNPA1 / Fold change vs veh, HNRNPA1 / RFU, RNF170 / Fold change vs veh, RNF170 / RFU, ZNF28 / Fold change vs veh, ZNF28 / RFU, RNGTT / Fold change vs veh, RNGTT / RFU, OGT / Fold change vs veh, OGT / RFU, BRD1 / Fold change vs veh, BRD1 / RFU, MARS / Fold change vs veh, MARS / RFU, ZNF655 / Fold change vs veh, ZNF655 / RFU, FAHD1 / Fold change vs veh, FAHD1 / RFU, BDP1 / Fold change vs veh, BDP1 / RFU, LRRCC1 / Fold change vs veh, LRRCC1 / RFU, ARID1A / Fold change vs veh, ARID1A / RFU, ZNF146 / Fold change vs veh, ZNF146 / RFU, ZNF330 / Fold change vs veh, ZNF330 / RFU, GPN3 / Fold change vs veh, GPN3 / RFU, C9orf123 / Fold change vs veh, C9orf123 / RFU, N4BP2L2 / Fold change vs veh, N4BP2L2 / RFU, ARFIP1 / Fold change vs veh, ARFIP1 / RFU, FAM179B / Fold change vs veh, FAM179B / RFU, BCL10 / Fold change vs veh, BCL10 / RFU, UHRF1BP1L / Fold change vs veh, UHRF1BP1L / RFU, BET1 / Fold change vs veh, BET1 / RFU, CNOT2 / Fold change vs veh, CNOT2 / RFU, ZNF268 / Fold change vs veh, ZNF268 / Fold change vs veh, ZNF507 / RFU, DGCR2 / Fold change vs veh, DGCR2 / RFU, WDSUB1 / Fold change vs veh, WDSUB1 / Fold change vs veh, HSP90B1 /// MIR3652 / RFU, ADSS / Fold change vs veh, ADSS / RFU, GK / Fold change vs veh, GK / RFU, ZNF148 / Fold change vs veh, ZNF148 / RFU, TAF9 / Fold change vs veh, TAF9 / RFU, SLC1A5 / Fold change vs veh, SLC1A5 / RFU, SLMO2 / Fold change vs veh, SLMO2 / RFU, ABCC4 / Fold change vs veh, ABCC4 / RFU, LOC101060439 /// RAP1B / Fold change vs veh, LOC101060439 /// RAP1B / RFU, RFX7 / Fold change vs veh, RFX7 / RFU, GTPBP10 / Fold change vs veh, GTPBP10 / RFU, CNEP1R1 / Fold change vs veh, CNEP1R1 / RFU, BIVM-ERCC5 /// ERCC5 / Fold change vs veh, BIVM-ERCC5 /// ERCC5 / RFU, ILF3 / Fold change vs veh, ILF3 / RFU 11762660_at / Fold change /veh 11762660_at / RFU VCAN (11757783_s_at) / Fold change /veh VCAN (11757783_s_at) / RFU DDX43 (11728927_at) / Fold change /veh DDX43 (11728927_at) / RFU KRT8 (11758188_x_at) / Fold change /veh KRT8 (11758188_x_at) / RFU NKD1 (11759106_at) / Fold change /veh NKD1 (11759106_at) / RFU SRD5A1 (11742802_a_at) / Fold change /veh SRD5A1 (11742802_a_at) / RFU TPSAB1 /// TPSB2 (11721975_s_at) / Fold change /veh TPSAB1 /// TPSB2 (11721975_s_at) / RFU GSTM3 (11746129_a_at) / Fold change /veh GSTM3 (11746129_a_at) / RFU IL23R (11737362_x_at) / Fold change /veh IL23R (11737362_x_at) / RFU TMEM51 (11727254_a_at) / Fold change /veh TMEM51 (11727254_a_at) / RFU PIWIL2 (11732686_x_at) / Fold change /veh PIWIL2 (11732686_x_at) / RFU ORM1 (11744905_x_at) / Fold change /veh ORM1 (11744905_x_at) / RFU CCDC152 (11743942_at) / Fold change /veh CCDC152 (11743942_at) / RFU ECM1 (11717891_a_at) / Fold change /veh ECM1 (11717891_a_at) / RFU IL23R (11748794_a_at) / Fold change /veh IL23R (11748794_a_at) / RFU TNFAIP8L3 (11732012_x_at) / Fold change /veh TNFAIP8L3 (11732012_x_at) / RFU MBOAT4 (11741988_at) / Fold change /veh MBOAT4 (11741988_at) / RFU 11764193_at / Fold change /veh 11764193_at / RFU TMEM53 (11763286_at) / Fold change /veh TMEM53 (11763286_at) / RFU MAGEB2 (11727129_at) / Fold change /veh MAGEB2 (11727129_at) / RFU TMEM200A (11744735_a_at) / Fold change /veh TMEM200A (11744735_a_at) / RFU CCDC152 (11751479_a_at) / Fold change /veh CCDC152 (11751479_a_at) / RFU FAM211A (11726209_a_at) / Fold change /veh FAM211A (11726209_a_at) / RFU RGS16 (11746705_a_at) / Fold change /veh RGS16 (11746705_a_at) / RFU VCAN (11755009_s_at) / Fold change /veh VCAN (11755009_s_at) / RFU RHOB (11743442_s_at) / Fold change /veh RHOB (11743442_s_at) / RFU RGS16 (11720943_a_at) / Fold change /veh RGS16 (11720943_a_at) / RFU RGS16 (11720944_at) / Fold change /veh RGS16 (11720944_at) / RFU, VPS4B / Fold change vs veh, VPS4B / RFU, CREB1 / Fold change vs veh, CREB1 / RFU, DNAJC13 / Fold change vs veh, DNAJC13 / RFU, GNAQ / Fold change vs veh, GNAQ / RFU, CDK5R1 / Fold change vs veh, CDK5R1 / RFU, ZRANB3 / Fold change vs veh, ZRANB3 / RFU, CUL4A / Fold change vs veh, CUL4A / RFU, CCNY / Fold change vs veh, CCNY / RFU, UFL1 / Fold change vs veh, UFL1 / RFU, COG3 / Fold change vs veh, COG3 / RFU, DIAPH2 / Fold change vs veh, DIAPH2 / RFU, SKA2 / Fold change vs veh, SKA2 / RFU, AFF3 / Fold change vs veh, AFF3 / RFU, LMF1 / Fold change vs veh, LMF1 / RFU, IPO11 / Fold change vs veh, IPO11 / RFU, DFFB / Fold change vs veh, DFFB / RFU, FOXP1 / Fold change vs veh, FOXP1 / RFU, CARD8 / Fold change vs veh, CARD8 / RFU, STRN3 / Fold change vs veh, STRN3 / RFU, ADK / Fold change vs veh, ADK / RFU, RASSF2 / Fold change vs veh, RASSF2 / RFU, WIPF1 / Fold change vs veh, WIPF1 / RFU, LARP1B / Fold change vs veh, LARP1B / RFU, RASA1 / Fold change vs veh, RASA1 / RFU, RB1 / Fold change vs veh, RB1 / RFU, PPFIA1 / Fold change vs veh, PPFIA1 / RFU, MAT2A / Fold change vs veh, MAT2A / RFU, CCT5 / Fold change vs veh, CCT5 / RFU, WDR92 / Fold change vs veh, WDR92 / RFU, CUX1 / Fold change vs veh, CUX1 / RFU, TTC7A / Fold change vs veh, TTC7A / RFU, TMEM135 / Fold change vs veh, TMEM135 / RFU, DEPTOR / Fold change vs veh, DEPTOR / RFU, CPM / Fold change vs veh, CPM / RFU, DNAJB6 / Fold change vs veh, DNAJB6 / RFU, CACNA2D3 / Fold change vs veh, CACNA2D3 / RFU, DTX4 / Fold change vs veh, DTX4 / RFU, TFCP2 / Fold change vs veh, TFCP2 / RFU, GMCL1 /// GMCL1P1 / Fold change vs veh, GMCL1 /// GMCL1P1 / RFU, AEBP2 / Fold change vs veh, AEBP2 / RFU, SNHG1 /// SNORD22 /// SNORD25 /// SNORD26 /// SNORD27 /// SNORD28 /// SNORD29 /// SNORD31 / Fold change vs veh, SNHG1 /// SNORD22 /// SNORD25 /// SNORD26 /// SNORD27 /// SNORD28 /// SNORD29 /// SNORD31 / Fold change (Aza/veh), C12orf56 (ProbeSet 11735607_a_at) / Fold change (ACY-1035/veh), C12orf56 (ProbeSet 11735607_a_at) / Fold change (Aza/veh), FGFR1OP (ProbeSet 11751329_s_at) / Fold change (ACY-1035/veh), FGFR1OP (ProbeSet 11751329_s_at) / Fold change (Aza/veh), VPS36 (ProbeSet 11739960_a_at) / Fold change (ACY-1035/veh), VPS36 (ProbeSet 11739960_a_at) / RFU SYPL1 (11715823_x_at) / Fold change /veh SYPL1 (11715823_x_at) / RFU IGFBP7 (11715501_s_at) / Fold change /veh IGFBP7 (11715501_s_at) / RFU REEP3 (11722064_at) / Fold change /veh REEP3 (11722064_at) / RFU IGLL1 (11728026_x_at) / Fold change /veh IGLL1 (11728026_x_at): dose or concentration left out as unconfirmed", "conditions": "MV-4-11 cells, 48 hours"}
{"smiles": "Nc1ncn([C@@H]2O[C@H](CO)[C@@H](O)[C@H]2O)c(=O)n1", "note": "[azacitidine]", "values": [{"measurement": "RFU KRT8 (11758183_x_at)", "value": 20.69, "unit": "RFU"}]}
